Experimental data reported in patent publication US11352352B2, “Aminopyrimidine compound, preparation method therefor and use thereof” (BEIJING ADAMADLE BIOTECHNOLOGY LIMITED LIABILITY COMPANY, priority 2017, dated 2022).

Tests used:
Test in all cases: Cell proliferation inhibition experiment, CellTiter-Glo (CTG) method
Format in all cases: cell-based
[1] = system: NCI-H1975; conditions: for IC50: Homo sapiens, NCI-H1975, 72 h, NCI-H1975 cells, CTG, 3 days; for A-431/NCI-H1975 Selectivity: ratio of A-431 IC50 to NCI-H1975 IC50
Outline: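 NCI-H1975 cells with viability above 90% by trypan blue were seeded at 90 μL per well in black 96-well plates and incubated overnight at 37° C., 5% CO2. Compounds were added at nine concentrations in triplicate, and viability was measured with CellTiter-Glo luminescence on EnVision. IC50 came from non-linear S-curve fitting in GraphPad Prism 5.0.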

[2] = system: PC-9; conditions: Homo sapiens, PC-9, 72 h, PC-9 cells, 3 days
Outline: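 Cells in log-phase growth (viability above 90% by trypan blue) were seeded at 90 μL per well in black-walled, clear-bottom 96-well plates and incubated overnight at 37° C., 5% CO2. A T0 plate was read the next day. Test compounds were added at nine concentrations in triplicate with a solvent control. Viability was measured by CellTiter-Glo luminescence on EnVision, and IC50 came from non-linear S-curve fitting in GraphPad Prism 5.0.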

[3] = system: A-431; conditions: Homo sapiens, A-431, 72 h, A-431 cells, 3 days
Outline: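 CTG luminescence measured after 3-day compound exposure, with a T0 plate read the day after seeding and solvent wells as control. Nine concentrations, 3-fold steps, in triplicate: A-431 from 30 μM, NCI-H1975 and PC-9 from 1.111 μM. IC50 derived by non-linear S-curve regression.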

Row | SMILES | IC50 [1] | IC50 [2] | IC50 [3] | A-431/NCI-H1975 Selectivity [1]
1 | C=CC(=O)Nc1cc(Nc2nccc(-c3ccc4c(cnn4C)c3)n2)c(OC)cc1N1C[C@@H](C)N[C@@H](C)C1 [compound 280] | 99.4 nM | 87.4 nM | 3220 nM | 32.4
2 | C=CC(=O)Nc1cc(Nc2cc(-c3ccc4c(cnn4C)c3)ncn2)c(OC)cc1OCCN1CCCCC1 [compound 189] | 109 nM | 24.1 nM | 2640 nM | 24.3
3 | C=CC(=O)Nc1cc(Nc2nccc(-c3ccc4c(cnn4C)c3)n2)c(OC)cc1N(C)CCNC(C)C [compound 281] | 72 nM | 67.9 nM | 3330 nM | 46.2
4 | C=CC(=O)Nc1cc(Nc2cc(-c3ccc4cnn(C)c4c3)ncn2)c(OC(F)F)cc1N(C)C1CCN(C)C1 (stereo not shown) [compound 165] | 50 nM | 40.7 nM | 2650 nM | 53.0
5 | C=CC(=O)Nc1cc(Nc2cc(-c3ccc4c(cnn4C)c3)ncn2)c(OC)cc1N1CCN(CC)[C@H](C)C1 [compound 29] | 55.7 nM | 79.9 nM | 1810 nM | 32.6
6 | C=CC(=O)Nc1cc(Nc2cc(-c3ccc4c(cnn4C)c3)ncn2)c(OC)cc1N(C)C1CCN(C(C)=O)CC1 [compound 293] | 79.6 nM | 54.2 nM | 2730 nM | 34.3
7 | C=CC(=O)Nc1cc(Nc2cc(-c3ccc4c(cnn4C)c3)ncn2)c(OC)cc1OCCN(C)C(C)C [compound 186] | 76.1 nM | 50.2 nM | 2570 nM | 33.7
8 | C=CC(=O)Nc1cc(Nc2cc(-c3ccc4c(cnn4C)c3)ncn2)c(OC)cc1N1CCN(CC(=O)N(C)C)CC1 [compound 136] | 56.2 nM | 45.6 nM | 2300 nM | 41.1
9 | C=CC(=O)Nc1cc(Nc2cc(-c3ccc4cnn(C)c4c3)ncn2)c(OC(F)F)cc1N(C)CCN(CC)CC [compound 183] | 40.4 nM | 69.8 nM | 984 nM | 24.4
10 | C=CC(=O)Nc1cc(Nc2cc(-c3ccc4c(cnn4C(C)C)c3)ncn2)c(OC)cc1N1C[C@@H](C)N(C)[C@@H](C)C1 [compound 83] | 67.2 nM | 77.9 nM | 1520 nM | 22.6
11 | C=CC(=O)Nc1cc(Nc2nccc(-c3ccc4c(cnn4C)c3)n2)c(OC)cc1N1CCC(N2C[C@@H](C)O[C@@H](C)C2)CC1 [compound 236] | 60 nM | 38.7 nM | 2080 nM | 34.7
12 | C=CC(=O)Nc1cc(Nc2cc(-c3ccc4c(cnn4C(C)C)c3)ncn2)c(OC)cc1N1CCC(C2CCN(C)CC2)CC1 [compound 86] | 91.6 nM | 76.4 nM | 1780 nM | 19.4
13 | C=CC(=O)Nc1cc(Nc2cc(-c3ccc4cnn(C)c4c3)ncn2)c(OC(F)F)cc1N1CCN(CCN(C)C)CC1 [compound 182] | 53.3 nM | 55.9 nM | 1740 nM | 32.6
14 | C=CC(=O)Nc1cc(Nc2cc(-c3ccc4cnn(C)c4c3)ncn2)c(OC)cc1N1CCC(OC)CC1 [compound 45] | 137 nM | 23.6 nM | 2610 nM | 19.0
15 | C=CC(=O)Nc1cc(Nc2cc(-c3ccc4nc(C)sc4c3)ncn2)c(OC)cc1N1CCC(N(CC)CC)CC1 [compound 191] | 91.8 nM | 56.4 nM | 1760 nM | 19.2
16 | C=CC(=O)Nc1cc(Nc2nccc(-c3ccc4c(cnn4C)c3)n2)c(OC)cc1N1CCN(C)CC1 [compound 228] | 65.7 nM | 35.7 nM | 1580 nM | 24.1
17 | C=CC(=O)Nc1cc(Nc2nccc(-c3ccc4c(cnn4C)c3)n2)c(OC)cc1N1CCC(N2C[C@@H](C)N(C)[C@@H](C)C2)CC1 [compound 233] | 71.4 nM | 54.9 nM | 2440 nM | 34.1
18 | C=CC(=O)Nc1cc(Nc2cc(-c3ccc4ncsc4c3)ncn2)c(OC)cc1N(C)CCN1CCN(C2CC2)CC1 [compound 128] | 103 nM | 70.7 nM | 1370 nM | 13.2
19 | C=CC(=O)Nc1cc(Nc2cc(-c3ccc4ncsc4c3)ncn2)c(OC)cc1N(C)CCN1C[C@@H](C)N(C)[C@@H](C)C1 [compound 126] | 85 nM | 64.1 nM | 2010 nM | 23.7
20 | C=CC(=O)Nc1cc(Nc2cc(-c3ccc4c(cnn4C)c3)ncn2)c(OC(F)F)cc1N1CCN(CCO)CC1 [compound 273] | 53.3 nM | 79.8 nM | 2680 nM | 50.2
21 | C=CC(=O)Nc1cc(Nc2cc(-c3ccc4cnn(C)c4c3)ncn2)c(OC)cc1N1CCC(N2CCCC2=O)CC1 [compound 213] | 74.9 nM | 55.6 nM | 2060 nM | 27.4
22 | C=CC(=O)Nc1cc(Nc2nccc(-c3ccc4nc(C)sc4c3)n2)c(OC)cc1N(C)CCN(C)C [compound 255] | 46.4 nM | 30 nM | 2010 nM | 43.4

Second part, led by results:

Row | IC50 [1] | IC50 [2] | IC50 [3] | SMILES | A-431/NCI-H1975 Selectivity [1]
23 | 14.9 nM | 19.9 nM | 1530 nM | C=CC(=O)Nc1cc(Nc2nccc(-c3ccc4c(cnn4C)c3)n2)c(OC(F)F)cc1N(C)CCN(C)CC [compound 259] | 102.6
24 | 10.2 nM | 5.6 nM | 895 nM | C=CC(=O)Nc1cc(Nc2cc(-c3ccc4cnn(C)c4c3)ncn2)c(OC)cc1N1CCC(N2CC(OC)C2)CC1 [compound 207] | 87.7
25 | 14.6 nM | 17.9 nM | 778 nM | C=CC(=O)Nc1cc(Nc2cc(-c3ccc4c(cnn4C)c3)ncn2)c(OC)cc1N1CCN(CC2CC2)CC1 [compound 105] | 53.3
26 | 32.3 nM | 35 nM | 1430 nM | C=CC(=O)Nc1cc(Nc2nccc(-c3ccc4c(cnn4C)c3)n2)c(OC)cc1N(C)C1CCN(C)C1 (stereo not shown) [compound 109] | 44.4
27 | 33 nM | 67.9 nM | 1580 nM | C=CC(=O)Nc1cc(Nc2nccc(-c3ccc4c(cnn4C)c3)n2)c(OC)cc1N(C)CCN(CC)CC [compound 239] | 47.8
28 | 9.9 nM | 10.7 nM | 598 nM | C=CC(=O)Nc1cc(Nc2cc(-c3ccc4c(cnn4C)c3)ncn2)c(OC)cc1N1CCN(C2CCN(C)CC2)CC1 [compound 133] | 60.4
29 | 10.9 nM | 12 nM | 765 nM | C=CC(=O)Nc1cc(Nc2cc(-c3ccc4nc(C)sc4c3)ncn2)c(OC)cc1N(C)CCN(C)C [compound 65] | 70.2
30 | 18.1 nM | 13.4 nM | 1060 nM | C=CC(=O)Nc1cc(Nc2cc(-c3ccc4c(cnn4C)c3)ncn2)c(OC)cc1N1CCN(C)C(C)C1 (stereo not shown) [compound 22] | 58.3
31 | 21.6 nM | 16.3 nM | 1570 nM | C=CC(=O)Nc1cc(Nc2cc(-c3ccc4c(cnn4C)c3)ncn2)c(OC)cc1N(C)CCO [compound 269] | 72.9
32 | 40.2 nM | 31.1 nM | 2310 nM | C=CC(=O)Nc1cc(Nc2cc(-c3ccc4c(cnn4C)c3)ncn2)c(OCC)cc1N(C)CCNC(C)(C)C [compound 121] | 57.6
33 | 23.5 nM | 15.4 nM | 1330 nM | C=CC(=O)Nc1cc(Nc2cc(-c3ccc4cnn(C)c4c3)ncn2)c(OC(F)F)cc1N1CCC(N(C)C)CC1 [compound 174] | 56.4
34 | 15.1 nM | 10.1 nM | 514 nM | C=CC(=O)Nc1cc(Nc2cc(-c3cc(C(F)(F)F)c4c(cnn4C)c3)ncn2)c(OC)cc1N(C)CCN(C)C [compound 4] | 34.0
35 | 25 nM | 35.1 nM | 1320 nM | C=CC(=O)Nc1cc(Nc2cc(-c3ccc4c(cnn4C)c3)ncn2)c(OC(F)F)cc1N1CCN(C2CCOCC2)CC1 [compound 153] | 53.0
36 | 7.3 nM | 19.5 nM | 633 nM | C=CC(=O)Nc1cc(Nc2cc(-c3ccc4c(cnn4C)c3)ncn2)c(OC)cc1N1CCC(N2CCN(C(C)C)CC2)CC1 [compound 101] | 
37 | 4.7 nM | 5.6 nM | 890 nM | C=CC(=O)Nc1cc(Nc2cc(-c3ccc4c(cnn4C)c3)ncn2)c(OC)cc1N(C)CCN(C)C [compound 1] | 
38 | 13.1 nM | 5.4 nM | 690 nM | C=CC(=O)Nc1cc(Nc2cc(-c3ccc4ncsc4c3)ncn2)c(OC)cc1N1CCC(N2CCN(C)CC2)CC1 [compound 64] | 52.6
39 | 6.1 nM | 5.9 nM | 1150 nM | C=CC(=O)Nc1cc(Nc2cc(-c3ccc4c(cnn4CC)c3)ncn2)c(OC)cc1N(C)CCN(C)C [compound 14] | 188.0
